From ChEMBL document CHEMBL1201862, “PubChem BioAssay data set” (2004) come the findings set out here.

The structures appear in SMILES notation.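 Assay format: 96-well plates, 48-hour exposure. At the GI50, growth is halved.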 The source made the active and inactive calls. Rule as the data show it: active = GI50 up to about 1.1 µM and inactive = higher.

Test systems include A549; CAKI-1; CCRF-CEM; EKVX; HCC 2998; HCT-116; HL-60; IGROV-1; K562; KM12; MDA-MB-231; MOLT-4; NCI-H23; OVCAR-5; PC-3; SF-268; SF-295; SK-MEL-5; SNB-75; A498.
Holding throughout (experiment): inhibition of tumour cell growth, NCI panel, 48 h

Regarding `O=S(=O)(/C=C/C=C/S(=O)(=O)c1ccccc1)c1ccccc1`, the GI50 is 9.27 µM (inactive) in the experiment with A549; 1.24 µM (inactive) with CAKI-1; 0.151 µM (active) in the experiment on CCRF-CEM; 1.72 µM (inactive) in the experiment with EKVX; 11.5 µM (inactive) in the experiment with HCC 2998; 1.27 µM (inactive) with HCT-116. Moreover, the GI50 in the experiment with HL-60 was 0.256 µM (active); in the experiment on IGROV-1, 4.56 µM (inactive); with K562, 0.269 µM (active); in the experiment with KM12, 2.29 µM (inactive); in the experiment on MDA-MB-231, 1.56 µM (inactive); in the experiment on MOLT-4, 0.315 µM (active). Moreover, the GI50 with NCI-H23 is 1.35 µM (inactive); with OVCAR-5, 7.83 µM (inactive); in the experiment on PC-3, 4.68 µM (inactive); with SF-268, 1.7 µM (inactive); in the experiment on SF-295, 10.4 µM (inactive); with SK-MEL-5, 0.853 µM (active). In addition, the GI50 in the experiment with SNB-75 was 6.61 µM (inactive).

In the case of `CC1(O)/C(=N/O)CC2CC1C2(C)C` (stereo not given), the GI50 with A549, in the experiment on CCRF-CEM, with HCC 2998, with HL-60, with IGROV-1 and in the experiment on K562 was > 100 µM (inactive) in each case. Further, the GI50 in the experiment with KM12, with MDA-MB-231, in the experiment with MOLT-4, in the experiment on NCI-H23, in the experiment on OVCAR-5 and with SF-268 was > 100 µM (inactive) in each case. The GI50 in the experiment on SF-295, in the experiment on SK-MEL-5 and in the experiment with SNB-75 was > 100 µM (inactive) in each case.

For `Cc1cc(N(CCC#N)CCC#N)ccc1C(/N=N/c1ccc([N+](=O)[O-])cc1)=N\NC(=O)c1cc(Cl)ccc1C(=O)c1ccccc1`, the GI50 in the experiment on A549 is 15 µM (inactive); with CAKI-1, 12.5 µM (inactive); in the experiment with CCRF-CEM, 2.98 µM (inactive); in the experiment on EKVX, 6.11 µM (inactive); in the experiment on HCC 2998 it was 13 µM (inactive); in the experiment on HCT-116, 4.23 µM (inactive). In addition, the GI50 is 3.56 µM (inactive) in the experiment on IGROV-1; 9.84 µM (inactive) with K562; 9.1 µM (inactive) with KM12; 11.2 µM (inactive) with MDA-MB-231; 4.65 µM (inactive) in the experiment on MOLT-4; 13.3 µM (inactive) with NCI-H23. The GI50 with OVCAR-5 is 26.1 µM (inactive); with PC-3, 6.5 µM (inactive); with SF-268, 6.07 µM (inactive); with SF-295 it was 14.5 µM (inactive); in the experiment on SK-MEL-5, 12 µM (inactive); with SNB-75, 24.6 µM (inactive).

For `O=S(=O)(c1ccccc1)c1ccc(-c2nc(-c3ccc4c(c3)Sc3ccccc3S4)cs2)cc1`, the GI50 was > 100 µM (inactive) with A549; > 100 µM (inactive) with CAKI-1; 41.9 µM (inactive) with CCRF-CEM; 39.8 µM (inactive) with EKVX; 35.5 µM (inactive) in the experiment on HCC 2998; 73.3 µM (inactive) in the experiment on HCT-116. Moreover, the GI50 in the experiment on HL-60 was > 100 µM (inactive); in the experiment on K562, 69 µM (inactive); in the experiment on KM12, > 100 µM (inactive); in the experiment on MDA-MB-231, 20.5 µM (inactive); with MOLT-4, 31.6 µM (inactive); with NCI-H23, 11.2 µM (inactive). Also, the GI50 in the experiment on OVCAR-5 is > 100 µM (inactive); with PC-3, > 100 µM (inactive); in the experiment on SF-268, 26.7 µM (inactive); in the experiment with SF-295, 16.5 µM (inactive); with SNB-75, 10.8 µM (inactive).

With `CC(NC(=O)C(C)C(=O)Nc1ccc(C(F)(F)F)cc1)C(N)=O` (stereo not given), the GI50 in the experiment on A549, with CAKI-1, in the experiment with CCRF-CEM, in the experiment on EKVX, in the experiment with HCT-116 and with HL-60 was > 100 µM (inactive) in each case. The GI50 was > 100 µM (inactive) in the experiment on IGROV-1; > 100 µM (inactive) in the experiment on K562; > 100 µM (inactive) in the experiment with KM12; > 100 µM (inactive) in the experiment with MDA-MB-231; > 10 µM (inactive) in the experiment on MOLT-4; > 100 µM (inactive) with NCI-H23. Besides, the GI50 with OVCAR-5, in the experiment on PC-3, in the experiment on SF-268, in the experiment on SF-295, with SK-MEL-5 and in the experiment with SNB-75 was > 100 µM (inactive) in each case.

In the case of `CCOC(=O)COc1c(OC)cc(C2C3=C(COC3=O)Oc3cc4c(cc32)OCO4)cc1OC` (stereo not given), the GI50 with A549 was 4.45 µM (inactive); with CAKI-1, 3.41 µM (inactive); with CCRF-CEM it was 0.229 µM (active); in the experiment on EKVX it was 4.02 µM (inactive); with HCC 2998, 14.5 µM (inactive); in the experiment with HCT-116, 0.773 µM (active). The GI50 in the experiment on HL-60 was 0.138 µM (active); in the experiment on IGROV-1 it was 1.83 µM (inactive); in the experiment with K562, 0.155 µM (active); in the experiment with KM12, 0.304 µM (active); with MDA-MB-231, 3.03 µM (inactive); with MOLT-4, 0.417 µM (active). The GI50 is 0.646 µM (active) in the experiment on NCI-H23; > 84.1 µM (inactive) in the experiment on OVCAR-5; 1.87 µM (inactive) in the experiment on PC-3; 13.5 µM (inactive) with SF-268; 0.9 µM (active) with SF-295; 0.244 µM (active) in the experiment with SK-MEL-5. Besides, the GI50 in the experiment with SNB-75 was 4.62 µM (inactive).

`COc1ccc(C2c3cc4c(cc3C(O)C3CCC(=O)N23)OCO4)cc1` (stereo not given): the GI50 with A498, in the experiment with A549, in the experiment with CAKI-1, with CCRF-CEM, with EKVX and in the experiment with HCC 2998 was > 100 µM (inactive) each time. The GI50 in the experiment on HCT-116, in the experiment with HL-60, in the experiment with IGROV-1, with K562, in the experiment on KM12 and with MOLT-4 was > 100 µM (inactive) each time. In addition, the GI50 in the experiment with NCI-H23, with OVCAR-5, in the experiment with PC-3, with SF-268, in the experiment with SF-295 and in the experiment on SK-MEL-5 was > 100 µM (inactive) in each case. For the same compound, the GI50 in the experiment on SNB-75 is 82.2 µM (inactive).

Take `Nc1ncnc2c1ncn2C1CCC(CP(=O)(O)O)C1` (stereo not given): the GI50 with A549, in the experiment on EKVX, in the experiment on HCC 2998, with HCT-116, in the experiment on HL-60 and in the experiment on IGROV-1 was > 100 µM (inactive) throughout. Moreover, the GI50 in the experiment on KM12, with MDA-MB-231, in the experiment on NCI-H23, with OVCAR-5, in the experiment with PC-3 and in the experiment with SF-268 was > 100 µM (inactive) in each case. For the same compound, the GI50 in the experiment with SF-295 and in the experiment with SK-MEL-5 was > 100 µM (inactive) throughout.

As to `CCCN(CCC)C(=S)Sc1nc(C)nc(N2CCN(c3nc(C)nc(SC(=S)N(CCC)CCC)c3[N+](=O)[O-])CC2)c1[N+](=O)[O-]`, the GI50 in the experiment with A549 is 20.7 µM (inactive); in the experiment with CAKI-1 it was 9.16 µM (inactive); in the experiment with CCRF-CEM it was 0.628 µM (active); with EKVX it was 30.5 µM (inactive); in the experiment on HCC 2998, 16.5 µM (inactive); in the experiment with HCT-116, 2.03 µM (inactive). Moreover, the GI50 in the experiment on HL-60 was 3.1 µM (inactive); in the experiment with IGROV-1 it was 11.4 µM (inactive); in the experiment on K562, 1.11 µM (active); with KM12, 14.2 µM (inactive); in the experiment with MDA-MB-231, 7.69 µM (inactive); in the experiment with MOLT-4, 3.23 µM (inactive). Moreover, the GI50 in the experiment on NCI-H23 is 12.4 µM (inactive); in the experiment on OVCAR-5 it was 23.4 µM (inactive); in the experiment with PC-3, 15.2 µM (inactive); in the experiment on SF-268, 18.8 µM (inactive); with SF-295, 24.9 µM (inactive); in the experiment with SK-MEL-5 it was 3.16 µM (inactive). Besides, the GI50 in the experiment on SNB-75 is 27.5 µM (inactive).

With `O=C(NC1CCCCC1)N1CCNC1=S`, the GI50 with A498 is > 100 µM (inactive); in the experiment with A549, > 100 µM (inactive); with CAKI-1, > 100 µM (inactive); in the experiment on CCRF-CEM, > 100 µM (inactive); in the experiment with EKVX, 9.53 µM (inactive); in the experiment on HCC 2998, > 100 µM (inactive). In addition, the GI50 is > 100 µM (inactive) in the experiment with HCT-116; > 100 µM (inactive) with HL-60; > 100 µM (inactive) in the experiment on IGROV-1; > 100 µM (inactive) in the experiment on K562; > 100 µM (inactive) in the experiment on KM12; 3.2 µM (inactive) in the experiment with MDA-MB-231. Moreover, the GI50 in the experiment on MOLT-4, in the experiment with NCI-H23, with OVCAR-5, in the experiment with SF-268, in the experiment on SF-295 and in the experiment on SK-MEL-5 was > 100 µM (inactive) each time. Besides, the GI50 with SNB-75 is > 100 µM (inactive).

For the compound `Cc1ccc(CS(=O)(=O)C/N=C2\Sc3ccccc3N\C2=C/C(=O)c2ccc(Cl)cc2)cc1`, the GI50 in the experiment on A549 is > 10 µM (inactive); in the experiment on CAKI-1, > 10 µM (inactive); in the experiment with CCRF-CEM it was 1 µM (active); with HCC 2998, > 10 µM (inactive); in the experiment with HCT-116, > 10 µM (inactive); in the experiment with HL-60, 1 µM (active). The GI50 is > 10 µM (inactive) in the experiment with IGROV-1; > 10 µM (inactive) in the experiment on K562; > 10 µM (inactive) in the experiment on KM12; > 10 µM (inactive) in the experiment with MDA-MB-231; 6.08 µM (inactive) in the experiment with MOLT-4; > 10 µM (inactive) in the experiment on NCI-H23. Further, the GI50 in the experiment on OVCAR-5 is > 10 µM (inactive); in the experiment with PC-3 it was > 10 µM (inactive); in the experiment with SF-268, 7.1 µM (inactive); with SF-295, > 10 µM (inactive); with SK-MEL-5, > 10 µM (inactive); in the experiment with SNB-75, 3.86 µM (inactive).
